Tests used:
[1] = Reaction of aminooxy-CD with 4-thiouracil followed by UV spectra; conditions: 1 mM 4-thiouracil, 0.1 M compound, 20° C., neutral pH (7.0), 1 mm path
Protocol: FIG. 1a. Time course of the UV spectra (optical path length 1 mm) of a reaction mixture containing 1 mM 4-thiouracil in 100 mM 4-aminooxy-2-butenyl-beta-cyclodextrin (I; see Example I.2) at pH 7.0. Incubation at 20° C. is indicated as hours.
FIG. 1b. Time course of the UV spectra (optical path length 1 mm) of a reaction mixture containing 1 mM 4-thiouracil and 100 mM 1-aminooxybutane at 20° C. at pH 7.00. Incubation time (hours) is indicated.
A 1 mM solution of 4-thiouracil (Lacheama, Brno, Czechoslovakia) was incubated at 20° C. within a 0.1 M solution of 4-aminooxy-2-butenyl-β-CD (I) at neutral pH. The UV-spectra were recorded at certain time intervals using cuvettes of 1 mm optical path length (FIG. 1a). This reaction was compared with the reaction of 4-thiouracil with 1-aminooxybutane under the same reaction conditions (FIG. 1b).

[2] = Reaction of aminooxy-CD with 6-mercaptopurine riboside followed by UV spectra; conditions: 1 mM 6-mercaptopurine riboside, 0.1 M compound, 20° C., pH 7.00, 1 mm path
Protocol: FIG. 2a. Time course of the UV spectra (optical path length 1 mm) of a reaction mixture containing 1 mM 6-mercaptopurineriboside with 100 mM 4-aminooxy-2-butenyl-beta-cyclodextrin (see Example I.2). Incubation time (hours) is indicated.
FIG. 2b. Time course of the UV spectra (optical path length b 1 mm) of a reaction mixture containing 1 mM 6-mercaptopurineriboside with 100 mM 1-aminooxybutane at pH 7.00. Incubation time (hours) is indicated.
A 1 mM solution of 6-mercaptopurine riboside (Sigma Chem. Co., USA) was incubated at 20° C. within 0.1 M of 4-aminooxy-2-butenyl-β-CD (I).

Question: For 4-aminooxy-2-butenyl-beta-cyclodextrin, which “velocity of reaction with 4-thiouracil compared with 1-aminooxybutane” value [1] is on record?
Answer: significantly higher velocity of reaction

Question: And the “reaction rate with 6-mercaptopurine riboside compared with 1-aminooxybutane” value [2]?
Answer: drastically higher reaction rates

Reference: US6998479B1, “Derivatives of cyclodextrins” (priority 1998, dated 2006)
